Test results published in patent US20260306460A1, “COMPOSITION FOR REMOVING AND INHIBITING SENESCENT CELLS, AND USES THEREOF” (LIFECEUTIX CO., LTD., priority 2023, published 2026).

Legend:
Type in all cases: in vivo, mouse
[1] = test system: naturally aged C57BL6J mice; assay: Joint aging (arthritis marker mRNA) in naturally aged mice, Example 21-12, Table 27
Protocol: (§1) 22-month-old female C57BL6J mice (KRIBB Laboratory Animal Resource Center) were acclimated to the experimental environment for one week, after which the aged mice were randomly assigned to experimental and control groups. Eight-week-old, non-aged mice served as controls. LX-403 was mixed in a 10% ethanol solution of PEG400 and administered orally at a concentration of 25 mg/kg daily for 21 days, or administered to the skin, joints, or eyes at a concentration of 1 μM. LX-1801 was mixed in distilled water with 4% DMSO, 30% PEG300, and 5% Tween80 and administered to the skin, joints, or eyes at a concentration of 0.4 μM daily for 21 days. LX-2001 was mixed in PBS and administered to the skin, joints, or eyes at a concentration of […] daily for 21 days. LX-2002 was mixed in distilled water with 4% DMSO, 30% PEG300, and 5% Tween80 and administered to the skin, joints, or eyes at a concentration of 2 μM daily for 21 days. […] LX-2005 was mixed in distilled water with 4% DMSO, 30% PEG300, and 5% Tween80 and administered to the skin, joints, or eyes at a concentration of 90 μM daily for 21 days. LX-2007 was mixed in distilled water with 4% DMSO, 30% PEG300, and 5% Tween80 and administered to the skin, joints, or eyes at a concentration of 90 μM daily for 21 days. […] LX-3002 was mixed in distilled water with 4% DMSO, 30% PEG300, and 5% Tween80 and administered orally at a concentration of 10 mg/kg daily for 21 days. […] LX-5411 was mixed in 5% PBS and administered orally at a concentration of 10 mg/kg daily for 21 days or administered to the skin, joints, or eyes at a concentration of 3 μM. LX-5701 was mixed in PBS and administered orally at a concentration of 360 mg/kg daily for 21 days. LX-6807 was mixed in saline and administered intraperitoneally at a concentration of 1 mg/kg daily for 21 days. LX-2101 or LX-2102 was mixed in PBS solution with 5% DMSO and administered intraperitoneally at a concentration of 20 mg/kg or 10 mg/kg, respectively, daily for 21 days. The control group received only the solution in the same volume. After the end of drug administration, the methods described in each example below were performed.
(§2) RNA was extracted from joint tissue as described in Example 7-2 of WO2023-085787 A1, and qRT-PCR was performed using the synthesized cDNA. […] To analyze joint pain due to joint aging, hotplate analysis was performed. Specifically, thermal pain thresholds were measured using a hot plate. After acclimating mice to a temperature of 30° C. for 10 minutes, the time required for hind paw licking or jumping responses to occur at 55° C. was measured. To prevent tissue damage, the response was measured for less than 30 seconds, and the average value was used from five measurements.

[2] = test system: naturally aged C57BL6J mice; assay: Hot plate joint pain test in naturally aged mice, Example 21-12, Table 27; conditions: hot plate 55° C., untreated aged 6.9 (±1.8)
Protocol: as §1, §2

[3] = test system: naturally aged C57BL6J mice; assay: Geriatric depression and anxiety in aged mice, Example 21-8; conditions: for amount of SASP, p16, SA-β-gal, lipofuscin / symptoms of geriatric depression and anxiety: aged mice; for amount of SASP in serum and tissues: mice of Examples 21-5 and 21-6
Excerpt: The amount of senescent-associated secretory factor (SASP) in serum and tissues collected from mice of Examples 21-5 and 21-6 was reduced by treatment with LX-5701, LX-2101, or LX-2102. It was confirmed that removing senescent cells, which increase with aging in mice, and effectively reducing the amount of senescent-associated secretory factor (SASP) can improve symptoms of geriatric depression and anxiety.

[4] = test system: obesity-induced aged C57BL6J mice; assay: Anxiety, depression, lethargy (open field test) in obesity-aged mice, Example 23-4, Table 44; conditions: for geriatric depression: obesity-aged mice; for Open Field Test Time in Center: obesity-induced aged mice, daily for 21 days, activity after obesity-induced aging calculated as 100%
Method in brief: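 Male C57BL6J mice were made obese on a high-fat diet from 15 weeks of age. Compounds were given daily for 21 days: LX-3002 10 mg/kg orally, LX-5701 360 mg/kg orally, LX-6807 1 mg/kg intraperitoneally, with vehicle-treated controls. Open-field activity was then expressed relative to obese untreated mice set at 100%.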

[5] = test system: naturally aged C57BL6J mice; assay: Frailty (open field, wire hanging, grip strength, muscle and fat tissue) in naturally aged mice, Example 21-7, Table 23; conditions: for Fat Mass (g): inguinal and epididymal fat, untreated aged 0.82 (±0.19); for Muscle Mass (g): quadriceps and gastrocnemius, untreated aged 0.64 (±0.06); for Grip Sterenght Test Strength (%) / Open Field Test Time in Center (%) / Wire Hanging Test Time (%): untreated aged = 100%
Protocol: as §1
To analyze frailty due to aging in mice, an activity test (open field test), an endurance test (wire hanging test), and a muscle strength and grip strength test (grip strength test) were performed using the same method as in Example 7-7 of WO2023-085787 A1. The table below quantitatively represents the results of activity, endurance, muscle strength, and grip strength, which are criteria for assessing frailty, under conditions in which aging was induced and the test compound was not administered or administered. The amount of each evaluation after aging was calculated as 100% and compared with the amount of each evaluation after treatment with the drug of the present invention.

Molecule	Col2a1 mRNA (fold) [1]	Response time (s) [2]	amount of SASP, p16, SA-β-gal, lipofuscin [3]	symptoms of geriatric depression and anxiety [3]	geriatric depression [4]	Fat Mass (g) [5]	Muscle Mass (g) [5]	Grip Sterenght Test Strength (%) [5]	Open Field Test Time in Center (%) [5]	Wire Hanging Test Time (%) [5]	amount of SASP in serum and tissues [3]	Open Field Test Time in Center [4]
O=C(C(C[N+](=O)[O-])=NO)N1CCN(C(c2ccc(Cl)cc2)c2ccc(Cl)cc2)CC1 [LX-403]	2.9 (±0.2) fold	5.6 (±0.7) s										
COC(=O)c1ccc([C@H]2c3[nH]c4ccccc4c3C[C@H](C(=O)OC)N2C(=O)CCl)cc1 [LX-405]			reduced	improved	similarly improving geriatric depression							
C[C@@H]1CC[C@@]23C[C@H](O)C(=O)[C@@]2(O)[C@]1(C)[C@H](OC(=O)CCl)C[C@@H](C1=CCn2c(=O)n(-c4ccccc4)c(=O)n2C1)[C@@H]3C [LX-1801, (2S,3aS,4S,5R,7R,8S,8aS,11R)-7-(1,3-Dioxo-2-phenyl-2,3,5,8-tetrahydro-1H-[1,2,4]triazolo[1,2-a]pyridazin-6-yl)-2,3a-dihydroxy-4,8,11-trimethyl-3-oxooctahydro-1H-4,8a-propanoazulen-5-yl 2-Chloroacetate]	2.6 (±0.2) fold	4.9 (±1.1) s										
C[C@H]1[C@H](C)CC[C@]2(C(=O)O)CC[C@]3(C)C(=CC[C@@H]4[C@@]5(C)CC[C@H](O)C(C)(C)[C@@H]5CC[C@]43C)[C@H]12 [LX-2001, Ursolic acid]	1.8 (±0.2) fold	5.0 (±0.9) s										
C[C@H]1[C@H](C)CC[C@]2(C(=O)O)CC[C@]3(C)C(=CC[C@@H]4[C@@]5(C)C[C@@H](O)[C@H](O)C(C)(C)[C@@H]5CC[C@]43C)[C@H]12 [LX-2002, Corosolic acid]	1.7 (±0.3) fold	5.3 (±0.6) s										
CC1(C)CC[C@]2(C(=O)O)CC[C@]3(C)C(=CC[C@@H]4[C@@]5(C)CC[C@H](O)C(C)(C)[C@@H]5CC[C@]43C)[C@@H]2C1 [LX-2003, Oleanolic acid]	1.9 (±0.2) fold	5.1 (±0.7) s										
C=C(C)[C@@H]1CC[C@]2(C(=O)O)CC[C@]3(C)[C@H](CC[C@@H]4[C@@]5(C)CC[C@H](O)C(C)(C)[C@@H]5CC[C@]43C)[C@@H]12 [LX-2005, Betulinic acid]	2.2 (±0.1) fold	4.9 (±1.2) s										
CC1(C)C=C2[C@H]3CC[C@@H]4[C@@]5(C)CCC(=O)C(C)(C)[C@@H]5CC[C@@]4(C)[C@]3(C)CC[C@@]2(C(=O)O)CC1 [LX-2007, Moronic acid]	1.6 (±0.2) fold	5.8 (±0.5) s										
CC1(C)CC[C@]2(NC(=O)C(C)(F)F)CC[C@]3(C)[C@H](C(=O)C=C4[C@@]5(C)C=C(C#N)C(=O)C(C)(C)[C@@H]5CC[C@]43C)[C@@H]2C1 [LX-2101, Omaveloxolone]	1.9 (±0.2) fold	5.1 (±0.4) s	reduced	improved	similarly improving geriatric depression	1.15 (±0.09) g	0.72 (±0.05) g	121 (±4.1) %	145 (±10.2) %	117 (±3.8) %	reduced	
COC(=O)[C@]12CCC(C)(C)C[C@H]1[C@H]1C(=O)C=C3[C@@]4(C)C=C(C#N)C(=O)C(C)(C)[C@@H]4CC[C@@]3(C)[C@]1(C)CC2 [LX-2102, Bardoxolone methyl]						0.97 (±0.16) g	0.76 (±0.05) g	116 (±9.2) %	109 (±8.6) %	120 (±7.5) %	reduced	
CCCC\C=C/C=C/C=C\CCCCCCCC(=O)O [LX-2707, Punicic acid]		5.4 (±0.6) s	reduced	improved	similarly improving geriatric depression	0.98 (±0.20) g	0.67 (±0.07) g	117 (±3.6) %	198 (±19.4) %	135 (±13.3) %		224 (±12.8) %
COC(=O)[C@H]1Cc2c([nH]c3ccccc23)[C@H](c2ccc(S(C)(=O)=O)cc2)N1C(=O)CCl [LX-5401, methyl (1S,3R)-2-(2-chloroacetyl)-1-(4-(methylsulfonyl)phenyl)-2,3,4,9-tetrahydro-1H-pyrido[3,4-b]indole-3-carboxylate]		5.9 (±0.2) s	reduced	improved	similarly improving geriatric depression							
C#CC(=O)N1[C@@H](CCCC)Cc2cc(OC)ccc2[C@@H]1c1ccc(NC23CC4CC(CC(C4)C2)C3)cc1 [LX-5411]	3.3 (±0.3) fold	4.7 (±0.4) s	reduced	improved	similarly improving geriatric depression							
O=C1C2CCN(CC2)C1CNC(=O)C(F)(F)F (stereo not shown) [LX-5701]	2.7 (±0.3) fold	4.6 (±1.3) s	reduced	improved		0.88 (±0.1) g	0.66 (±0.1) g	119 (±3.8) %	259 (±38.6) %	141 (±7.3) %	reduced	217 (±20.1) %
Tocofersolan [LX-3001]		6.1 (±0.6) s	reduced	improved		0.95 (±0.12) g	0.70 (±0.1) g	115 (±4.7) %	187 (±12.9) %	126 (±11.4) %		168 (±11.9) %
